Laboratory results taken from doi:10.1101/2023.10.20.563248v1 (biorxiv, 2023).

What was measured:
LIMK1 = LIMK1 (Homo sapiens, UniProt P53667); assay: NanoBRET tracer displacement, HEK293T; type: cell-based; conditions: intact cells; […] °C, […] h; competitive with tracer
[1] = target: MST3 (full-length, NanoLuc fusion) (Homo sapiens, UniProt Q9Y6E0); assay: cell-based
[2] = target: MST4 (full-length, NanoLuc fusion) (Homo sapiens, UniProt Q9P289); assay: NanoBRET tracer displacement, HEK293T; type: cell-based
PRK1 = PRK1 (Homo sapiens, UniProt Q16512); conditions: 1 µM; inhibitor
GRK5 = GRK5 (Homo sapiens, UniProt P34947); conditions: 1 µM; inhibitor
HIPK1 = HIPK1 (Homo sapiens, UniProt Q86Z02); conditions: 1 µM; inhibitor
ULK2 = ULK2 (Homo sapiens, UniProt Q8IYT8); conditions: 1 µM; inhibitor
SAK = SAK (Homo sapiens, UniProt O00444); conditions: 1 µM; inhibitor
NEK1 = NEK1 (Homo sapiens, UniProt Q96PY6); conditions: 1 µM; inhibitor
CDK1/CycB1 = CDK1/CycB1 (Homo sapiens, UniProt P06493); conditions: 1 µM; inhibitor
PKCe = PKCe (Homo sapiens, UniProt Q02156); conditions: 1 µM; inhibitor
CAMK4 = CAMK4 (Homo sapiens, UniProt Q16566); conditions: 1 µM; inhibitor
NDR2 = NDR2 (Homo sapiens, UniProt Q9Y2H1); conditions: 1 µM; inhibitor
ERK5 = ERK5 (Homo sapiens, UniProt Q13164); conditions: 1 µM; inhibitor
CDK5/p35NCK = CDK5/p35NCK (Homo sapiens, UniProt Q00535); conditions: 1 µM; inhibitor
AKT3 = AKT3 (Homo sapiens, UniProt Q9Y243); conditions: 1 µM; inhibitor
GRK7 = GRK7 (Homo sapiens, UniProt Q8WTQ7); conditions: 1 µM; inhibitor
CDK10 = CDK10 (Homo sapiens, UniProt Q15131); conditions: 1 µM; inhibitor
BTK = BTK (Homo sapiens, UniProt Q06187); conditions: 1 µM; inhibitor
TSK2 = TSK2 (Homo sapiens, UniProt Q96PF2); conditions: 1 µM; inhibitor
p38d = p38d (Homo sapiens, UniProt O15264); conditions: 1 µM; inhibitor
CAMKK2 = CAMKK2 (Homo sapiens, UniProt Q96RR4); conditions: 1 µM; inhibitor
KIT = KIT (Homo sapiens, UniProt P10721); conditions: 1 µM; inhibitor
FGFR4 = FGFR4 (Homo sapiens, UniProt P22455); conditions: 1 µM; inhibitor
Chain of FGFR4 (P22455 whole entry): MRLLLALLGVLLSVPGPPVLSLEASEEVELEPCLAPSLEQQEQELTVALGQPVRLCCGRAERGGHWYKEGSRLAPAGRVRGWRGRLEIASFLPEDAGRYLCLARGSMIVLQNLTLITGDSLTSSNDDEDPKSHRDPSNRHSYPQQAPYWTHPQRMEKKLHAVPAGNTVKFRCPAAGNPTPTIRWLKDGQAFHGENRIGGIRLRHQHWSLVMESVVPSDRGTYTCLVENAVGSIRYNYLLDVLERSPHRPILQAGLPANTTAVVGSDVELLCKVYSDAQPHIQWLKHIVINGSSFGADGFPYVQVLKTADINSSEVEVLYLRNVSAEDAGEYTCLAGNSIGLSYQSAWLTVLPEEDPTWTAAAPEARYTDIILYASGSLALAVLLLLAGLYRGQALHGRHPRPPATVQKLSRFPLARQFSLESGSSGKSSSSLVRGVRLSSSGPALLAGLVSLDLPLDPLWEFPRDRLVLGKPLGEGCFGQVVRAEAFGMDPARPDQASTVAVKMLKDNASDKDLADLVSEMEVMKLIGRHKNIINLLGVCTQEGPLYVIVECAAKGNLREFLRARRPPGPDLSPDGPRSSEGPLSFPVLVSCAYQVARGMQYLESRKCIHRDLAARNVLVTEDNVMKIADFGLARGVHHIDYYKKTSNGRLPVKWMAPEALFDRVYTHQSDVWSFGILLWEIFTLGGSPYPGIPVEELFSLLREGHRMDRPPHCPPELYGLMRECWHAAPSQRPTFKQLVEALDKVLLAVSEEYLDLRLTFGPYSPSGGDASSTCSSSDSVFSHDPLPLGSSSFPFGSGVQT

Chain of MST3 (full-length, NanoLuc fusion) (Q9Y6E0 whole entry, the tested form may be a part): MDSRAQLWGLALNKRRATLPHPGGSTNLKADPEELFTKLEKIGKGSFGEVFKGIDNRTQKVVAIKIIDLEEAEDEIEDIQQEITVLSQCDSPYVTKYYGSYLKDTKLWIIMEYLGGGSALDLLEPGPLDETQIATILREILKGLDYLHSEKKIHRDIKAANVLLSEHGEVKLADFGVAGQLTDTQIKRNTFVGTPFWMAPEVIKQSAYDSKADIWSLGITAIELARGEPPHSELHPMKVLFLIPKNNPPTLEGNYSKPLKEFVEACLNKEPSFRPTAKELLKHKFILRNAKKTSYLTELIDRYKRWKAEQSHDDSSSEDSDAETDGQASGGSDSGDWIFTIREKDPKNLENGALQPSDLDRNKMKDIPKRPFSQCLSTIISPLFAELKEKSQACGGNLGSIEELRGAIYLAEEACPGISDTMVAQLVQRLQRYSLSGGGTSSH
Chain of PRK1 (Q16512 whole entry): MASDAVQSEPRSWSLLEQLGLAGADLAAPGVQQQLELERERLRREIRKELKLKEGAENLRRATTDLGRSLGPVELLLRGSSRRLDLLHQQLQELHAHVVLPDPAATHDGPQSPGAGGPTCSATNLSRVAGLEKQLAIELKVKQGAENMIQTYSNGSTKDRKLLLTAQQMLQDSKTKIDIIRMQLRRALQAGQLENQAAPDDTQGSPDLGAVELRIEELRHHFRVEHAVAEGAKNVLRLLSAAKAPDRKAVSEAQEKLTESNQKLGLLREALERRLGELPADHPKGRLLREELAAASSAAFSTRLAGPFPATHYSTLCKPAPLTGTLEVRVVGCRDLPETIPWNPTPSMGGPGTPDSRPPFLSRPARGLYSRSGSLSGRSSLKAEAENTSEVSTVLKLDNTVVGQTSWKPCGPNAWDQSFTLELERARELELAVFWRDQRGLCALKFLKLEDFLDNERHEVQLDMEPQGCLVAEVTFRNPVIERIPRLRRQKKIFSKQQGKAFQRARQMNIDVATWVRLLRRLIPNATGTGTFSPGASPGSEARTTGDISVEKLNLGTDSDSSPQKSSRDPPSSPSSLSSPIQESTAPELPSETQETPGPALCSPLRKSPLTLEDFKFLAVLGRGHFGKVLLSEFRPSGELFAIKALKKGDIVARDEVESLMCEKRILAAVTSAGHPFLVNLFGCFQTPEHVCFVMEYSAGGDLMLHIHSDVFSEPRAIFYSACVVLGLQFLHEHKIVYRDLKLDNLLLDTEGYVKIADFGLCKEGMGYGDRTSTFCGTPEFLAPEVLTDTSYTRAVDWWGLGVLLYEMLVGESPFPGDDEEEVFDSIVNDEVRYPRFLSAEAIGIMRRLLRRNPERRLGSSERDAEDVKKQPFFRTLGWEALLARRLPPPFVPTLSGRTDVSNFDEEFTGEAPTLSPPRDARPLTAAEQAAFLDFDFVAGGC
Chain of ULK2 (Q8IYT8 whole entry): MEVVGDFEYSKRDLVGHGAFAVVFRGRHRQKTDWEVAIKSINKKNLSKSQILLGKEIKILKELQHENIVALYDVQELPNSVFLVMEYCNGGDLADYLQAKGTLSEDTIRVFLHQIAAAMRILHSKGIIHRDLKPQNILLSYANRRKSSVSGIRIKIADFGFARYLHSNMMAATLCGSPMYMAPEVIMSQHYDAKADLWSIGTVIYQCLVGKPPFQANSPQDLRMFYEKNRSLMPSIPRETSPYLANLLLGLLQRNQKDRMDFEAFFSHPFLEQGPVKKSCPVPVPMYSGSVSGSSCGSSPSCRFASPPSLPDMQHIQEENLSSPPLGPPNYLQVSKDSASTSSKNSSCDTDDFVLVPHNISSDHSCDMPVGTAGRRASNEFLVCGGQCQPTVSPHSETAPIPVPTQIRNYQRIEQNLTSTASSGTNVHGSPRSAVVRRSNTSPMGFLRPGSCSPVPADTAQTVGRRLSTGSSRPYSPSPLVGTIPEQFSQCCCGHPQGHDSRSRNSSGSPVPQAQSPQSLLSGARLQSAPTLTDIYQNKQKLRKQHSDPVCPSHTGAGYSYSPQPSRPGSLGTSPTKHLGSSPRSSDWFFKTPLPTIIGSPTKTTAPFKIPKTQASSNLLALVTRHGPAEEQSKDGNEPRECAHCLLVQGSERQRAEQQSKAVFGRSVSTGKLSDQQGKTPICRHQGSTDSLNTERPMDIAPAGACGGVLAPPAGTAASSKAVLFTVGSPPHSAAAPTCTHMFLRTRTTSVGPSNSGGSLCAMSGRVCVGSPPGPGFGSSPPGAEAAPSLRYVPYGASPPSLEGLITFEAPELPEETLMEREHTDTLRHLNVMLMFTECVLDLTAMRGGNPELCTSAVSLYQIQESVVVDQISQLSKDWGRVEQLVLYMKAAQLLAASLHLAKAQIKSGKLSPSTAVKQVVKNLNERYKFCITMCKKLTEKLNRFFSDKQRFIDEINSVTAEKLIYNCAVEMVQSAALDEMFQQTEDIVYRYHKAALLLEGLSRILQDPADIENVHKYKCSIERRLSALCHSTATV
Chain of SAK (O00444 whole entry): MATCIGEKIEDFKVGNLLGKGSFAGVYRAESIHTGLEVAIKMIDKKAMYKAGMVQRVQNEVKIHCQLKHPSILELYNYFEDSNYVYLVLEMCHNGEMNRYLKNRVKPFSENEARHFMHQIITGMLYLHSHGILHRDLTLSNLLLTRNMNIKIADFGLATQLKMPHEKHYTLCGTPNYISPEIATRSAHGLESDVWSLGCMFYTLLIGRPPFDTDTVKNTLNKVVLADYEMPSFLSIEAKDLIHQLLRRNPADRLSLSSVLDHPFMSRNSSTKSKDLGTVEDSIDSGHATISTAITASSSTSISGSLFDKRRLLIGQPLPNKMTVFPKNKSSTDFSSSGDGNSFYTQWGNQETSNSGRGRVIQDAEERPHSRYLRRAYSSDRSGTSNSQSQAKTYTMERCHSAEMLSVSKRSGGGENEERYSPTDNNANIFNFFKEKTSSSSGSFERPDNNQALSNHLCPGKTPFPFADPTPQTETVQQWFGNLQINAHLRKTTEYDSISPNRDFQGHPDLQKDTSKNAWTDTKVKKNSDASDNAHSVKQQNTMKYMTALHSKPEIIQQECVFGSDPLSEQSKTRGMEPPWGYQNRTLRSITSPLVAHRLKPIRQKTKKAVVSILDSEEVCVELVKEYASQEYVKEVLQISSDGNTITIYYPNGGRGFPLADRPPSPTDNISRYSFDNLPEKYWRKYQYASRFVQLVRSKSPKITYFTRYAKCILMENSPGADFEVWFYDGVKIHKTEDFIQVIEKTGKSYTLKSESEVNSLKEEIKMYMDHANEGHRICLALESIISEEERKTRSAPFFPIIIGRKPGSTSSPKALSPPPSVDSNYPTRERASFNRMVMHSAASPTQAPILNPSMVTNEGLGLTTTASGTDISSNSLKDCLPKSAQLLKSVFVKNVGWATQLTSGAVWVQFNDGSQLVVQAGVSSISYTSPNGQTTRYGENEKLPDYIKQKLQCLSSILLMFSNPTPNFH
Chain of TSK2 (Q96PF2 whole entry): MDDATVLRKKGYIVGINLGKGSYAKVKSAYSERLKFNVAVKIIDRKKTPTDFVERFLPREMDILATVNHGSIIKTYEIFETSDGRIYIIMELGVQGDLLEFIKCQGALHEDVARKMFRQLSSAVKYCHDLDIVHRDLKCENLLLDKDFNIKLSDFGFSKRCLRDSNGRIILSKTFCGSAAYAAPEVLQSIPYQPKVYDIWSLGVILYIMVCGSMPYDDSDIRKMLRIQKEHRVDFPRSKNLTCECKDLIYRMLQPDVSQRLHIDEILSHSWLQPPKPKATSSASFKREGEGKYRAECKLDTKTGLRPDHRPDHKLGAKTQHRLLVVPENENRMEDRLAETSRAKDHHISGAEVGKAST
Chain of CDK10 (Q15131 whole entry): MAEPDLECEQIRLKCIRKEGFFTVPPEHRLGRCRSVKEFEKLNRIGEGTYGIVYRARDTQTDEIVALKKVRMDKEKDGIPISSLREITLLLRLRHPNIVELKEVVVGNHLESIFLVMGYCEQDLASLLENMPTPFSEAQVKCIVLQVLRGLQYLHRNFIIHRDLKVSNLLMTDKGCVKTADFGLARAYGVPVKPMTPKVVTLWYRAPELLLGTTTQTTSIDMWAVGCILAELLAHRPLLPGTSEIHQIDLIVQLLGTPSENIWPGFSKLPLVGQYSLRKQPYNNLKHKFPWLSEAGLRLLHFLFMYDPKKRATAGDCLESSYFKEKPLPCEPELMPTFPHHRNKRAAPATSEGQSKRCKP

- EC50 (LIMK1): 5670 ± 1020 nM
- EC50 [1]: 106 nM
- EC50 [2]: 1400 nM
- 21c Remaining activity, percent of control [%] (PRK1): 91.8%
- 21c Remaining activity, percent of control [%] (GRK5): 103.8%
- 21c Remaining activity, percent of control [%] (HIPK1): 97.2%
- 21c Remaining activity, percent of control [%] (ULK2): 96.0%
- 21c Remaining activity, percent of control [%] (SAK): 86.5%
- 21c Remaining activity, percent of control [%] (NEK1): 79.1%
- 21c Remaining activity, percent of control [%] (CDK1/CycB1): 87.2%
- 21c Remaining activity, percent of control [%] (PKCe): 86.5%
- 21c Remaining activity, percent of control [%] (CAMK4): 98.0%
- 21c Remaining activity, percent of control [%] (NDR2): 93.9%
- 21c Remaining activity, percent of control [%] (ERK5): 93.4%
- 21c Remaining activity, percent of control [%] (CDK5/p35NCK): 96.6%
- 21c Remaining activity, percent of control [%] (AKT3): 102.5%
- 21c Remaining activity, percent of control [%] (GRK7): 89.2%
- 21c Remaining activity, percent of control [%] (CDK10): 85.1%
- 21c Remaining activity, percent of control [%] (BTK): 96.6%
- 21c Remaining activity, percent of control [%] (TSK2): 93.8%
- 21c Remaining activity, percent of control [%] (p38d): 94.8%
- 21c Remaining activity, percent of control [%] (CAMKK2): 90.8%
- 21c Remaining activity, percent of control [%] (KIT): 69.4%
- 21c Remaining activity, percent of control [%] (FGFR4): 96.9%
SMILES: O=C1NCCCCCNc2nc(c3ccccc3n2)Nc2cc1[nH]n2 [21c, (Z)-3^1H-2,5,11-triaza-1(4,2)-quinazolina-3(3,5)-pyrazolacycloundecaphan-4-one]
